Source: patent US10703717B2, “Water-soluble isatin derivative, and manufacturing method and application thereof” (TIANJIN UNIVERSITY OF SCIENCE & TECHNOLOGY, priority 2016, dated 2020)

Columns and labels:
Water solubility = format: physicochemical; conditions: for water solubility, in words: summary of table 1
K562 cells = experiment: In-vitro anti-tumor activity, MTT assay, human leukemia K562 cells; format: cell-based; conditions: 48 h
Procedure: (§1) Anti-Tumor Activity Determination Method
(§2) Preparation of PBS buffer: Sodium chloride 8 g, potassium chloride 0.2 g, disodium hydrogen phosphate dodecahydrate 2.9 g, potassium dihydrogen phosphate 0.2 g and purified water 800 mL were placed into a 1000 mL conical flask, the mixture was stirred and dissolved to a volume of 1000 mL. After autoclaving, PBS buffer was stored in a refrigerator at 4° C.
(§3) Preparation of MTT solution: 0.5 g MTT dry powder was dissolved in 100 mL PBS buffer. After sterilizing by filtration through a […] filter, it was stored in a refrigerator at −12° C.
(§4) Three kinds of tumor cells were used in the antitumor activity assay of the present invention: human liver cancer cells (HepG2), human leukemia cells (K562) and human colon cancer cells (HCT116).
Activity test using human leukemia K562 cells
The human leukemia cells (K562) were grown in RPMI1640 medium supplemented with 10% fetal bovine serum, 1% penicillin/streptomycin and were cultured in an incubator of 5% CO2 at 37° C.
The method comprises the following steps:
(1) After counting the cells with a hemocytometer, dilute it to a density of 5×10^4 cells/mL with RPMI1640 medium;
(2) 100 μl cell suspension was added in each well of 96-well plates and incubated at 37° C. for 2 h;
(§5) (3) The compound to be tested was diluted to five concentrations: 2 mM, 200 μM, 20 μM, 2 μM, 0.2 μM. Then, 0.5 μL compound of different concentrations was added to the well and incubated at 37° C. for another 48 h;
(§6) (4) MTT (5 mg/ml) was added to each well and the plate was further incubated for 4 h at 37° C.;
(5) Dissolving the cells with DMSO, and the OD values were measured at 570 nm and 630 nm by a microplate reader;
(6) Process the data by calculating the IC50 value based on the OD values.

HCT116 cells = experiment: In-vitro anti-tumor activity, MTT assay, human colon cancer HCT116 cells; format: cell-based; conditions: HCT-116, 48 h
Procedure: as §1
(§7) Preparation of DMEM/F-12 medium: MEM/F-12 medium (Hyclone) was purchased, 500 mL per bottle, 10% fetal bovine serum and 1% streptomycin solution were added in it. That is, 50 mL of fetal bovine serum and 5 mL of streptomycin were added to each flask of the medium. The preparation of the medium was carried out in an ultra-clean workbench and stored in a refrigerator at 4° C.
as §2, §3, §4
Activity test using human colon cancer HCT116 cells
The human colon cancer cells (HCT116) were grown in DMEM/F-12 medium supplemented with 10% fetal bovine serum, 1% penicillin/streptomycin and were cultured in an incubator of 5% CO2 at 37° C. The method comprises the following steps:
(1) After counting the cells with a hemocytometer, dilute it to a density of 5×10^4 cells/mL with DMEM/F-12 medium;
(§8) (2) 100 μl cell suspension was added in each well of 96-well plates and incubated at 37° C. for 24 h;
(3) The compound to be tested was diluted to five concentrations: 2 mM, 200 μM, 20 μM, 2 μM, 0.2 μM. Then, 0.5 μL compound of different concentrations was added to each well and incubated at 37° C. for another 48 h;
(4) MTT (5 mg/ml) was added to the well and the plate was further incubated for 4 h at 37° C.;
(§9) (5) Dissolving the cells with DMSO, and the OD values were measured at 490 nm and 630 nm by a microplate reader; […]

HepG2 cells = experiment: In-vitro anti-tumor activity, MTT assay, human liver cancer HepG2 cells; format: cell-based; conditions: 48 h
Procedure: as §1
as §7, with “low glucose DMEM” for “DMEM/F-12”, “MEM” for “MEM/F-12”, “purchased with low glucose,” for “purchased,”
as §2, §3, §4
Activity Test Using Human Liver Cancer HepG2 Cells
The human liver cancer cells (HepG2) were grown in DMEM medium supplemented with 10% fetal bovine serum, 1% penicillin/streptomycin and were cultured in an incubator of 5% CO2 at 37° C. The method comprises the following steps:
(1) After counting the cells with a hemocytometer, dilute it to a density of 5×10^4 cells/mL with low glucose DMEM medium;
as §8, §5, §6, §9

[1] = system: tumor cells (HepG2, K562, HCT116); experiment: In-vitro anti-tumor activity, summary in words over the three tumor cell lines; format: cell-based, human; conditions: summary of table 1; for cytotoxic / anti-tumor activity, in words: compared with precursor/parent compound
Text: as §1, §4

Row | Water solubility (Water solubility) | IC50 (K562 cells) | IC50 (HCT116 cells) | IC50 (HepG2 cells) | water solubility, in words (Water solubility) | Structure (SMILES) | cytotoxic / anti-tumor activity, in words [1] | activity compared with positive reference substance camptothecin [1]
1 | >10 g/100 g | 1 to 10 µM | 1 to 10 µM | 1 to 10 µM | obviously improved | COc1ccc(CN2C(=O)C(=O)c3cc(-c4ccc(O)c(CN(C)C)c4)ccc32)cc1 [Compound 1] | still retains certain cytotoxic activity | 
2 | >10 g/100 g | < 0.01 µM | < 0.01 µM | 1 to 10 µM | obviously improved | COC(=O)/C=C/c1ccc2c(c1)C(=O)C(=O)N2Cc1ccc(O)c(CN(C)C)c1 [Compound 2] | greatly improved | superior

Row | Structure (SMILES) | Water solubility (Water solubility) | IC50 (K562 cells) | IC50 (HCT116 cells) | IC50 (HepG2 cells) | water solubility, in words (Water solubility) | cytotoxic / anti-tumor activity, in words [1] | activity compared with positive reference substance camptothecin [1]
3 | CC[C@@]1(O)C(=O)OCc2c1cc1n(c2=O)Cc2cc3ccccc3nc2-1 [CPT, camptothecin, reference compound] | insoluble | 0.1 to 1 µM | 0.1 to 1 µM | 0.1 to 1 µM |  |  | 
